Laboratory results taken from ChEMBL document CHEMBL1201862, “PubChem BioAssay data set” (2004).
Active and inactive are the calls of the source.

Key:
[1] = target: T1, Alkaline phosphatase, tissue-nonspecific isozyme (Homo sapiens, UniProt P05186); experiment: potency against alkaline phosphatase TNAP – biochemical, luminescent, dose response, SAR follow-up (AID 1056)
T1 sequence (P05186 whole entry): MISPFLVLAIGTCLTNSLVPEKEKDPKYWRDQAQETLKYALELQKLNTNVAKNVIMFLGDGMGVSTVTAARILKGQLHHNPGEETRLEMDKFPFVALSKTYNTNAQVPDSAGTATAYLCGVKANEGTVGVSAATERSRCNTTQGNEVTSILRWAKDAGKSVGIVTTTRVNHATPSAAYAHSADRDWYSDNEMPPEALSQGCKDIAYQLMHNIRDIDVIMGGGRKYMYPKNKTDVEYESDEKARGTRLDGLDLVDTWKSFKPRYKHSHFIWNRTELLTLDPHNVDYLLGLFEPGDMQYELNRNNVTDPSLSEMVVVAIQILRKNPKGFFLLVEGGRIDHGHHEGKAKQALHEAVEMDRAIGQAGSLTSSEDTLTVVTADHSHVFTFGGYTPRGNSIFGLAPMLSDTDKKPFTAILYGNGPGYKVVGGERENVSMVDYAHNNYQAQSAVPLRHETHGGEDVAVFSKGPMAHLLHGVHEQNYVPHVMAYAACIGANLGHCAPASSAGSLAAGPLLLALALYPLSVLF

[2] = target: Alkaline phosphatase, placental type (Homo sapiens, UniProt P05187); experiment: human placental alkaline phosphatase inhibition – biochemical, luminescence, confirmation (AID 1512); type: functional
[3] = target: T2, Heat shock factor protein 1 (Mus musculus, UniProt P38532); experiment: enhancement of HSF1-driven luciferase signal – cell-based, NIH3T3, luminescence, dose retest, confirmation (AID 435004); type: functional;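 also: stress induced by proteasome inhibitor MG132 added 30 min after compound; luciferase reporter driven by HSF1 response element in NIH3T3 cells; actives raise luminescence as potentiators of the MG132 stress response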
T2 sequence (P38532 whole entry): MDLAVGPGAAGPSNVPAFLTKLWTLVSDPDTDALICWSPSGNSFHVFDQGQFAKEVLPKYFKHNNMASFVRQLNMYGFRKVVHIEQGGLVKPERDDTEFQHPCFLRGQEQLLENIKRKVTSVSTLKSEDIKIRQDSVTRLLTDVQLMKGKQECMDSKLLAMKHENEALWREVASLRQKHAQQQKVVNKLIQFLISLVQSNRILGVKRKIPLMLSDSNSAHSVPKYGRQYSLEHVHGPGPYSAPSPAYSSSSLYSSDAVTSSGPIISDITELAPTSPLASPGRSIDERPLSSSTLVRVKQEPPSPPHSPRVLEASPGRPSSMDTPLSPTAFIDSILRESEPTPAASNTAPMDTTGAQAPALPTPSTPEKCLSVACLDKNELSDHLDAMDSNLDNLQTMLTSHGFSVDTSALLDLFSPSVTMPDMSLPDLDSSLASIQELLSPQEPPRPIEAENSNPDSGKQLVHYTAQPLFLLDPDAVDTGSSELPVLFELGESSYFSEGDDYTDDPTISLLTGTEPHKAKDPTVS

cells = type: functional
[4] = Vero E6 cell cytotoxicity, dose response, cytotoxicity control for non-replicating M. tuberculosis project, secondary assay (AID 492998); type: functional, VeroE6; details: Vero C1008
[5] = THP-1 cell cytotoxicity, dose response, cytotoxicity control for non-replicating M. tuberculosis project (AID 489025); type: functional
HEK293 [6] = experiment: cells; type: functional, cell-based; details: Homo sapiens
HEK293 [7] = experiment: cells; type: functional, cell-based; details: Homo sapiens; remark: listed apart in the source
Protein RecA = target: T3, Protein RecA (Mycobacterium tuberculosis, UniProt P9WHJ3); experiment: Fluorescence Cell-Free Homogeneous Dose Retest to Identify Inhibitors of RecA-Intein Splicing Activity. [Related pubchem assays (depositor defined):AID2097, AID2223, AID489010, AID492950]; type: functional
T3 sequence (P9WHJ3 whole entry): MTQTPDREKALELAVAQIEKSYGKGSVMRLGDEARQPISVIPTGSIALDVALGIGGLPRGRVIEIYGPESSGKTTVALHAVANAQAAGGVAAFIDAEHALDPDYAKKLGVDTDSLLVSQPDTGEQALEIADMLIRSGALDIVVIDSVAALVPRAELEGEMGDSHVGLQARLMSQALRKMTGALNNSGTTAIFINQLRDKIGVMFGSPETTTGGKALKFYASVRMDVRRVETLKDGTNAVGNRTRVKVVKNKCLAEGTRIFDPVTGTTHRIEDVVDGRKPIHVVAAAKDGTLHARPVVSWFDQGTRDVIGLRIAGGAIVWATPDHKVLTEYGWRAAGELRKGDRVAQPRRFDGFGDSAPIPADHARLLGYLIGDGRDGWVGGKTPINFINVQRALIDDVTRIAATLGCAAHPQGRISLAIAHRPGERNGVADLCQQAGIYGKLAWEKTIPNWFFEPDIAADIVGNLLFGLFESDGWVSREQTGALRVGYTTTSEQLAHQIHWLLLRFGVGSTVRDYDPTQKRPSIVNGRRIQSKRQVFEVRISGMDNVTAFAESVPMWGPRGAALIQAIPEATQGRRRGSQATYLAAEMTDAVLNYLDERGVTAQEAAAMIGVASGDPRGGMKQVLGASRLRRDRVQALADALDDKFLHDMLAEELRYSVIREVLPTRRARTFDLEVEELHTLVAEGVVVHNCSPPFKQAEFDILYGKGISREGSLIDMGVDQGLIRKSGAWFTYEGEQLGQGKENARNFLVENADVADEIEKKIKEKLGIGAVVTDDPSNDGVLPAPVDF

[8] = target: Nucleotide-binding oligomerization domain-containing protein 2 (Homo sapiens, UniProt Q9HC29); experiment: inhibition of NOD2-driven NF-kB reporter – cell-based, luminescence, uHTS, HEK293 (AID 1566); type: functional
[9] = target: T4, Replicative DNA helicase DnaB (Mycobacterium tuberculosis, UniProt P9WMR3); experiment: DnaB intein splicing inhibitors, dose response, biochemical, cell-free fluorescence (AID 449749); type: functional
T4 sequence (P9WMR3 whole entry): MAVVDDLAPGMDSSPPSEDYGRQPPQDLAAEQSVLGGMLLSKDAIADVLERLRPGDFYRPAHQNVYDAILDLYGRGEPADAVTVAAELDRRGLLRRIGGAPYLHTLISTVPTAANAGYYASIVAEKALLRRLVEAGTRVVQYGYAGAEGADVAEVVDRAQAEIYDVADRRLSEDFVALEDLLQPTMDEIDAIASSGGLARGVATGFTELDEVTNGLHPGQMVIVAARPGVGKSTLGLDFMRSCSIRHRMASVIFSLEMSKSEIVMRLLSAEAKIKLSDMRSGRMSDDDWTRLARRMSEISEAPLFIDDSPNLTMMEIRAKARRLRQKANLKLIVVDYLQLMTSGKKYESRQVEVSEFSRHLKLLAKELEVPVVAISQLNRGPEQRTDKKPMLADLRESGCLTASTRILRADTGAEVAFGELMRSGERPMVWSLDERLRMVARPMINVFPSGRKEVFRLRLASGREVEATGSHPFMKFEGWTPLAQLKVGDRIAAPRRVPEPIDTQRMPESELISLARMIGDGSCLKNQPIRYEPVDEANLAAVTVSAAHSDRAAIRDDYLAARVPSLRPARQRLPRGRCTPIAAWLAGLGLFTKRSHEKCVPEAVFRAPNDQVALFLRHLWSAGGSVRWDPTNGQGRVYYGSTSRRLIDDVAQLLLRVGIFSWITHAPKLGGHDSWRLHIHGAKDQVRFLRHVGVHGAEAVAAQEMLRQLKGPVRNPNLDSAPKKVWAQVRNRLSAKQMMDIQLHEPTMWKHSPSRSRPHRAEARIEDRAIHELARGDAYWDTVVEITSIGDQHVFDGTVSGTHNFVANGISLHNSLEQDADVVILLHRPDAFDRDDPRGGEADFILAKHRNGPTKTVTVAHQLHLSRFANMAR

HEK293 [10] = experiment: inhibition of NOD1-driven NF-kB reporter – cell-based, luminescence, uHTS, primary screen (AID 1578); type: functional; details: Homo sapiens
[11] = viability of PTEN-deleted HCT116 cells – cell-based, HCT116 PTEN knockout, dose response (AID 1047); type: functional;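 also: HCT116 colon tumor cells with PTEN knocked out; cells exposed to compound for 60 hours before readout; potency for loss of cell viability measured by luminescence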
[12] = target: Heat shock protein HSP 90-alpha (Homo sapiens, UniProt P07900); type: functional, organism-based
[13] = viability of HCT116 lacking mutant beta-catenin – cell-based, human colon tumor, dose response (AID 1045); type: functional;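 also: HCT116 colon tumor cells with beta catenin knocked out; cells exposed to compound for 60 hours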
HEK293 [14] = experiment: cells; type: functional, cell-based; details: Homo sapiens; remark: listed apart in the source
HEK293 [15] = experiment: NOD2 signaling inhibitors in MDP-stimulated cells, cell-based, uHTS, luminescence (AID 2001); type: functional; details: Homo sapiens
[16] = target: T5, COUP transcription factor 2 (Homo sapiens, UniProt P24468); experiment: Luminescence-based cell-based high throughput dose response assay to identify inhibitors of COUP-TFII (NR2F2).; type: functional;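 also: HEK293 cells transiently cotransfected with COUP-TFII expression vector and reporter; luciferase reporter luminescence driven by COUP-TFII from the pX2-168 reporter plasmid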
T5 sequence (P24468 whole entry): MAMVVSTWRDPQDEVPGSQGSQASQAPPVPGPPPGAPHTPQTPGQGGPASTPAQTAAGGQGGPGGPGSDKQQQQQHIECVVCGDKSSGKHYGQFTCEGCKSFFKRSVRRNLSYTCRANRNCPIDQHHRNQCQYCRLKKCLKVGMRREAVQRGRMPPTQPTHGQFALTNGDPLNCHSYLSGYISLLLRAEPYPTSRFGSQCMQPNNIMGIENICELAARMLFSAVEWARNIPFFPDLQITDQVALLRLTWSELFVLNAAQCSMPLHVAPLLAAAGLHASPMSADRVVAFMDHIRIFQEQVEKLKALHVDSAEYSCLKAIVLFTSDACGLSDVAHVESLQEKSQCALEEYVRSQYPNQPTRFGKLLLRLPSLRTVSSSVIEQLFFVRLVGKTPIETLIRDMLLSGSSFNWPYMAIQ

[17] = target: Glyceraldehyde-3-phosphate dehydrogenase (Homo sapiens, UniProt P04406)
Chain of Glyceraldehyde-3-phosphate dehydrogenase (P04406 whole entry): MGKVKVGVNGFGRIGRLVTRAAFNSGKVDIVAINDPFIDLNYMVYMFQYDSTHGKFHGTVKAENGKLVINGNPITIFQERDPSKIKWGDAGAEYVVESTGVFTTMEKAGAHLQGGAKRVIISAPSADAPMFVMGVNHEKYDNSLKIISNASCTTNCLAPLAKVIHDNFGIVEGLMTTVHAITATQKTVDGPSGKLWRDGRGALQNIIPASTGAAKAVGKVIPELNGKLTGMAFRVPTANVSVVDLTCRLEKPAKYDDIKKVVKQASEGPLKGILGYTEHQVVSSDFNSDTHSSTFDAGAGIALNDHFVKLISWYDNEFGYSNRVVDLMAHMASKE

Chain of Alkaline phosphatase, placental type (P05187 whole entry): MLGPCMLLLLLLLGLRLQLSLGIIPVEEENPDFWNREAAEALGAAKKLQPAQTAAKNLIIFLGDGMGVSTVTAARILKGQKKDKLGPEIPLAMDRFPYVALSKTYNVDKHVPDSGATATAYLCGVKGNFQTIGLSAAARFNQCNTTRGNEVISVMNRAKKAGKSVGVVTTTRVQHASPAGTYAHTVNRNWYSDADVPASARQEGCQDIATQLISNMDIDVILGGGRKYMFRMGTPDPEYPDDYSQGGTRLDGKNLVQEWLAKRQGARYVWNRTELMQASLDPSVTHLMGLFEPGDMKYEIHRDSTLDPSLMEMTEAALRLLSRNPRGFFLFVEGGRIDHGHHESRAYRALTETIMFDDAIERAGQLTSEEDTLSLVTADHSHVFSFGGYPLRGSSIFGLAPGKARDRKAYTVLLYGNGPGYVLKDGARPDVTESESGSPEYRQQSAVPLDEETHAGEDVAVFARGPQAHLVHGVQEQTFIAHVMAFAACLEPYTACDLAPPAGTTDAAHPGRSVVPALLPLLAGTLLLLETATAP
Chain of Nucleotide-binding oligomerization domain-containing protein 2 (Q9HC29 whole entry, the tested form may be a part): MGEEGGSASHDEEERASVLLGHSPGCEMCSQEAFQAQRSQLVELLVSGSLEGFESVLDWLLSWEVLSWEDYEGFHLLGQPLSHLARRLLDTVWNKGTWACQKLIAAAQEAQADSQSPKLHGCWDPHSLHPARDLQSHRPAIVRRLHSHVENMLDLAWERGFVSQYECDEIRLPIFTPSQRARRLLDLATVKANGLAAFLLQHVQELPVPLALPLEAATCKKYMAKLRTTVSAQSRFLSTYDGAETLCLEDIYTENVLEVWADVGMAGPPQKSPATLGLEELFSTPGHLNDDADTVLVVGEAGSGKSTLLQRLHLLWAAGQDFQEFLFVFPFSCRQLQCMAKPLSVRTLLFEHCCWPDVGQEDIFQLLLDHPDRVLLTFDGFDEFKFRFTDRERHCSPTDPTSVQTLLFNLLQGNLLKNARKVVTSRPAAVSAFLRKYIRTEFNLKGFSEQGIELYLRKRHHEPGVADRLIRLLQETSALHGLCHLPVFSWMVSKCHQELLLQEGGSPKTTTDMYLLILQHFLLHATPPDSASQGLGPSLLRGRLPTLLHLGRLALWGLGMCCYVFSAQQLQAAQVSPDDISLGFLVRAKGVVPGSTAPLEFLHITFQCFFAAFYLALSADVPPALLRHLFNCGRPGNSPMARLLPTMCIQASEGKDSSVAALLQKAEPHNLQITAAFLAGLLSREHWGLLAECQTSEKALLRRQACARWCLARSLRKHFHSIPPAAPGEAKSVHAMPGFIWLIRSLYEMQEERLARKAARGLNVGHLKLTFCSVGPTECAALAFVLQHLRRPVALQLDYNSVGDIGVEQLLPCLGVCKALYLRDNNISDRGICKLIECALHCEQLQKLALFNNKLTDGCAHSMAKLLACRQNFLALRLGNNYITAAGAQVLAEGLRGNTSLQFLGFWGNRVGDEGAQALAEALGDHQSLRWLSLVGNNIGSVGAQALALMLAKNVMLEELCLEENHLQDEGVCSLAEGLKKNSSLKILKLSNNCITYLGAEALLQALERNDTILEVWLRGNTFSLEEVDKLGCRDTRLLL

Compound	IC50 [1]	IC50 [2]	IC50 (cells)	CC50 [4]	CC50 [5]	IC50 (HEK293 [6])	IC50 (HEK293 [7])	EC50 [8]	EC50 (HEK293 [10])	IC50 (HEK293 [14])	IC50 (HEK293 [15])	further results
CCc1nc(SCC(=O)c2ccc(O)cc2O)n[nH]1	> 100 µM (inactive)	> 100 µM (inactive)										
COc1ccc(C(=O)Cn2c(C)nc([N+](=O)[O-])c2Br)cc1			12.1 µM (active)	> 20 µM (active)	> 40 µM (active)							EC50 [3]: 19.8 µM (active)
CC(C)CC(=O)/C(=C\c1ccc(Cl)cc1Cl)n1cncn1						9.81 µM (active)	> 20 µM (inactive)	> 20 µM (inactive)	> 20 µM (inactive)	4.25 µM (active)	7.85 µM (active)	EC50 (Protein RecA): 11.2 µM (active); AC50 [9]: 11.8 µM (active); EC50 [11]: 4.72 µM (active); AC50 [12]: 2.04 µM (active); EC50 [13]: 4.31 µM (active)
Cc1nc2c(-c3ccc(Cl)cc3)cnn2c(N)c1-c1ccc(F)cc1						> 20 µM (inactive)	> 20 µM (inactive)	> 20 µM (inactive)	> 20 µM (inactive)	2.34 µM (active)	> 20 µM (inactive)	IC50 [16]: > 85.4 µM (inactive)
CCc1ccc(-c2ccc(-c3nc(N)nn3-c3ccccc3)cc2)cc1	> 100 µM (inactive)	> 100 µM (inactive)										IC50 [17]: > 100 µM (not active)
O=C(N/N=C\c1ccc([N+](=O)[O-])s1)C1COc2ccccc2O1 (centres undefined)			5.68 µM (active)	13.3 µM (active)	22.6 µM (active)	> 20 µM (inactive)			9.04 µM (active)	19.1 µM (active)	16.2 µM (inactive)	
